Data published in PubChem BioAssay AID624326 (Sanford-Burnham Center for Chemical Genomics, 2012).
The source made the active and inactive calls.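 Rule for the calls: active = half-inhibitory concentration against fatty acid synthase thioesterase at or below 20 µM; inactive = the rest.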

Target: Fatty acid synthase (Homo sapiens) (UniProt P49327)
Assay: FAS thioesterase domain inhibitors, dose response, biochemical, kinetic fluorescence intensity (AID 624326)
Settings: recombinant FAS-TE, OMFH fluorogenic substrate

Fatty acid synthase (Homo sapiens), sequence (P49327 whole entry, looked up, the tested form may be a part): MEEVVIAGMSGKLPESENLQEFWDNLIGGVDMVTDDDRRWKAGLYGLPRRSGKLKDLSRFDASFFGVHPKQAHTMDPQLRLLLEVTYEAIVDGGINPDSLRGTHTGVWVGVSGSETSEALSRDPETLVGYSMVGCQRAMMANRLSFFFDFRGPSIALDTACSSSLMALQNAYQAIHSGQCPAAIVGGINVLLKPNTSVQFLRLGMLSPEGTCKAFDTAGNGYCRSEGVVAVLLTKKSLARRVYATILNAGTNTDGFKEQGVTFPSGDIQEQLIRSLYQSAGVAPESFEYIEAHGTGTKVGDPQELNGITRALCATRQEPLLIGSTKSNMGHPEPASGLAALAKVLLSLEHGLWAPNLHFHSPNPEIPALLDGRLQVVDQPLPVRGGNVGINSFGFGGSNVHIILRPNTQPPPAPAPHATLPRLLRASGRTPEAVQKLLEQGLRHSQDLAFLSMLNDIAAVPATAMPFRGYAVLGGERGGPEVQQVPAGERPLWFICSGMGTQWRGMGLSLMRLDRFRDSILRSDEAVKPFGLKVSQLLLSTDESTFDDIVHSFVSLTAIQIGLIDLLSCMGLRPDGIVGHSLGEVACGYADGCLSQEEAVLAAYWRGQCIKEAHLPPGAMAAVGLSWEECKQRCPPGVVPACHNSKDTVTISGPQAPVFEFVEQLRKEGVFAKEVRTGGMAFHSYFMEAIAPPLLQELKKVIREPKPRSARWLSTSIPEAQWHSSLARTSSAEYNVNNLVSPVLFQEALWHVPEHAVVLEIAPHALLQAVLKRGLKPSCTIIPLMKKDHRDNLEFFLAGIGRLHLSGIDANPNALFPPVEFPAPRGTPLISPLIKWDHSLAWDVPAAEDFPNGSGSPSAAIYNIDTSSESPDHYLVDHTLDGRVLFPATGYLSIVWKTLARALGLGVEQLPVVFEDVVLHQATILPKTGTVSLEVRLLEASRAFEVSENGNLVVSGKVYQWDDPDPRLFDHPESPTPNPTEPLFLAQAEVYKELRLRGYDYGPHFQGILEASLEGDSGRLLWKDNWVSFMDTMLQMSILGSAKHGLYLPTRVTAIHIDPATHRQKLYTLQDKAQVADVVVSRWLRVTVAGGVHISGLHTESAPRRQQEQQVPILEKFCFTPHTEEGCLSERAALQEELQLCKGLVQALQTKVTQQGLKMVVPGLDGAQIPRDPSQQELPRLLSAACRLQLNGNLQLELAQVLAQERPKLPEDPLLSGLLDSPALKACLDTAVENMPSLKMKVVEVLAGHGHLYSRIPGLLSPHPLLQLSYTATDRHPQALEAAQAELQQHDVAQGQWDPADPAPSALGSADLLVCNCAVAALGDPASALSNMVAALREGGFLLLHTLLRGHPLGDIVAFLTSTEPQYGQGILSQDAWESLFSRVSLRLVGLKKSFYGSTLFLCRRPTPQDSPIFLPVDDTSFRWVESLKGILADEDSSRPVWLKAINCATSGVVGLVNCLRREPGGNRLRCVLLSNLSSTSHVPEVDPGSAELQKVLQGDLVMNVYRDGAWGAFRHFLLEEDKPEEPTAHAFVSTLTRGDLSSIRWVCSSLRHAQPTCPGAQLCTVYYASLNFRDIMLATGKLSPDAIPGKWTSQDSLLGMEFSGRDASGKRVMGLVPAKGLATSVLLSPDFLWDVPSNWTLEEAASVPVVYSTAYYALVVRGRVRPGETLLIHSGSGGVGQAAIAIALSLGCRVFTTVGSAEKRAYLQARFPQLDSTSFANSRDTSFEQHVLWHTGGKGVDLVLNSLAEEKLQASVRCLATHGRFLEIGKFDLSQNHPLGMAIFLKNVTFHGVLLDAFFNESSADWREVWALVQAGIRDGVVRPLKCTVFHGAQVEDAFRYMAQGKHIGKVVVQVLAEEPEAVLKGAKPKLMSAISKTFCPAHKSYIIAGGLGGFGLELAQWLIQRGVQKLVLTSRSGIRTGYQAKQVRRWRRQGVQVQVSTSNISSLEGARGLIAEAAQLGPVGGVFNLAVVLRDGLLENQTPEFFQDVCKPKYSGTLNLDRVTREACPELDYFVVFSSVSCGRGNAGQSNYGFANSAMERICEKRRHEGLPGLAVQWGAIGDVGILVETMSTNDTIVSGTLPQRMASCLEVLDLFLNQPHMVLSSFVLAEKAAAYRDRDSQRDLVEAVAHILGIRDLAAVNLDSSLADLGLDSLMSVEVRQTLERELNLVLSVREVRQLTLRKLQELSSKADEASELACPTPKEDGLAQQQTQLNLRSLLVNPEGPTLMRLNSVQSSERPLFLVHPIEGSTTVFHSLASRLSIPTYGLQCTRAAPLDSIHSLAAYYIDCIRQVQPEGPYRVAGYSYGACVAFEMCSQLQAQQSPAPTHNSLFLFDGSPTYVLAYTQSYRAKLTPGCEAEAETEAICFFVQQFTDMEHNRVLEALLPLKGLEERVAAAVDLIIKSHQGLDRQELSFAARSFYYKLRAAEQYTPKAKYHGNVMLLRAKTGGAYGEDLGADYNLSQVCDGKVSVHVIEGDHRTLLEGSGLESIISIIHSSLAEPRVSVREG

IC50 | Compound
206 nM | CCCCC(=O)Nc1nc(-c2ccc(S(=O)(=O)N3CCOCC3)cc2)cs1
inactive | CCC(C)(C)C1CCC(=NNS(=O)(=O)c2ccc(C)c([N+](=O)[O-])c2)CC1 (configuration not stated)
